This note sets out measurements from publication PMC6337261, “Short Peptides with Uncleavable Peptide Bond Mimetics as Photoactivatable Caspase-3 Inhibitors” (Molecules, 2019).

The test system of series [1] is caspase-3. Put plainly: Fluorogenic substrate (Ac-DEVD-AMC) cleavage assay. Type of series: biochemical. Particulars: 10 μM compound, 2 nM caspase-3, 50 μM Ac-DEVD-AMC, HEPES pH 7.4 with 10 mM DTT, n = 2. The protocol:
(§1) To check whether our probes function as inhibitors, competitive ABPP [28] was performed. Recombinant caspase-3 was incubated with probes 9a–10c, 11a and 12a with or without irradiation at 365 nm, followed by labeling of residually active caspase-3 with the fluorescent, caspase-directed activity-based probe (ABP) SV149, a tetramethylrhodamine derivative of KMB-01 [29]. Caspase activity itself was not affected by UV irradiation, as shown by bands of equal intensity with and without UV light (Figure 2A). […] To confirm inhibition, we also performed substrate cleavage assays using the fluorogenic aminomethyl coumarin substrate Ac-DEVD-AMC. […] Inhibition of active caspases could also be achieved in an apoptotic cell lysate (Figure 2D).
Purified caspase-3 (2 nM) was pre-activated by incubating in caspase reaction buffer (20 mm HEPES pH 7.4, 100 mM NaCl, 1 mM EDTA, 10% sucrose (w/v), 0.1% CHAPS (w/v), 10 mM DTT) for 15 min at 37 °C. Inhibitors 9a, 10a, and DMSO (control) were incubated with the caspase-3 at 10 μM final concentration. One set was irradiated with a handheld UV lamp at 365 nm for 30 min at room temperature whereas the control set was not irradiated. After 30 min, 99 μL of the sample was added to 1 μL of Ac-DEVD-AMC fluorogenic substrate (5 mM in dmso; 50 μM final concentration) in a black 96 well plate. The fluorescence intensity was read using an iD3 SpectraMax platereader (Molecular Devices; excitation wavelength: 340 nm; emission wavelength: 475 nm). The experiment was performed in duplicate. Activity was determined as the slope from the linear part of the progress curve by using GraphPad Prism.
(§2) Figure 2 Inhibition of caspase-3. (A) Competitive activity-based protein profiling (ABPP) experiments using ψ(CH2NH) or triazolo peptide derivatives 9–12 with or without irradiation. Compounds 9a–12a were used at 10 μM final concentration, 9b, 9c, 10b and 10c at 100 μM. Inh = caspase inhibitor biotin-DEVD-AOMK, used at 100 nM concentration. (B) Representative progress curves of fluorescence produced by Ac-DEVD-AMC (50 μM) cleavage by caspase-3, irradiated with or without 10 μM of the indicated compounds. (C) Bar graph of residual caspase-3 activity of replicate experiments (n = 2) of those in (B). (D) Inhibition of executioner’s caspase-3 and -7 in lysates of HEK293 cells, treated with cytochrome c/dATP to induce apoptosis.

Series [2] in a line: LC-MS analysis of probes before and after UV irradiation. Type of series: physicochemical. Particulars: irradiation at 365 nm, gradient 10% to 95% acetonitrile with 0.1% formic acid. The protocol: Compounds were irradiated with UV light of 365 nm for 30 min and after removal of the light source added to caspase-3. Residual caspase activity was measured by using a fluorescent caspase ABP as in our previous experiments above.
Although this points towards a cyclization rather than reaction with a water molecule, it is not clear whether it leads to a potent caspase inhibitor. […] Therefore, cyclization seemed improbable, as this would most likely lead to a shift in retention time. We hypothesized that irradiation could potentially lead to oxidation of a very small amount of the ψ(CH2NH) moiety with benzophenone as a photosensitizer, resulting in minute quantities of aldehydes that were not detected on LC-MS, but were sufficient for caspase-3 inhibition. Oxidation of secondary amines under influence of benzophenone has been reported before. […] Note that triazoles cannot undergo this transformation, further explaining their inactivity. The oxidation hypothesis was supported by an experiment in which ψ(CH2NH) peptides 14 and 15, not containing a benzophenone, were irradiated in the presence of 1 eq of spiked-in benzophenone (Figure 3G–I).
All materials were purchased from Sigma Aldrich GmbH (GmbH, Darmstadt, Germany), Carl Roth GmbH + Co. KG (Karlsruhe, Germany), Thermo Fischer Scientific Inc. (Dreieich, Germany), Rapp Polymere GmbH (Tübingen, Germany), Applichem GmbH (Darmstadt, Germany), VWR International GmbH (Darmstadt, Germany), Merck KGaA (Darmstadt, Germany), CreoSalus Inc. (Louisville, KY, USA), and Iris Biotech GmbH (Marktredwitz, Germany) and were used as received, unless otherwise noted. TLC was performed on pre-coated ALUGRAM SIL G plates with detection by a handheld UV lamp (254 nm) and subsequent staining with potassium permanganate, p-anisaldehyde, ninhydrin or cerium ammonium molybdate. LC-MS analysis was performed on a Thermo LCQ Fleet HPLC-MS/MS system using a gradient of 10% to 95% acetonitrile containing 0.1% formic acid. NMR spectra were recorded on a Bruker Avance DRX 400 spectrometer with tetramethylsilane as internal standard. High resolution ESI-FTMS was performed on a Thermo Scientific LTQ Orbitrap Velos Pro mass spectrometer.

The test system of series [3] is caspase-3. The experiment in a line: Gel-based competitive ABPP on recombinant caspase-3. As to conditions: 10 μM compound, PBS with 1 mM DTT, fluorescent ABP read-out on gel. Type of series: biochemical. The procedure:
as §1
Caspase-3, produced in E. coli and purified as described before, was reacted in PBS with 1 mM DTT. Samples were combined with the indicated probe and irradiated with a handheld UV lamp at 365 nm for 30 min at room temperature. For competition experiments with ‘pre-activation,’ the indicated probes were irradiated for 30 min prior to addition to caspase-3, and incubated for an additional 30 min. Next, ABP 13 was added (final concentration 1 μM) to label residual caspase-3 activity. The samples were incubated for 30 min at room temperature, after which 1/3rd volume of 4× Laemmli buffer was added. Samples were heated at 95 °C for 2 min and resolved by 15% SDS-PAGE. Gels were scanned using a Typhoon Trio+ fluorescent scanner with excitation at 532 nm and an emission filter of 580 nm. Gel images were processed with ImageJ (background subtraction with rolling ball radius of 50 pixels and automated contrast adjustment).
as §2

[4] abbreviates: irradiated at 365 nm for 30 min at room temperature.

For “Hexynoyl-Asp-Glu-Val-Aspψ(CH2NH)-Ala-Bpa-NH2 [10a]”, the results for the “Inhibition of Ac-DEVD-AMC cleavage by caspase-3” value in series [1] (setting [4]) and in series [1] (not irradiated) were “complete blockage of substrate processing” and “little to no inhibition”, respectively. Further, the “Change of probe upon UV irradiation (LC-MS before and after)” value in series [2] was “did not show obvious changes”. Moreover, the “Inhibition of caspase-3 activity (caspase ABP labeling)” value in series [3] (setting [4]) was “complete inhibition”; in series [3] (non-irradiated), “no decrease in caspase ABP labeling”.
